Test results reported in patent publication US20220048945A1, “PEPTIDE INHIBITING ACTIVITY OF ARYL HYDROCARBON RECEPTOR AND COSMETIC COMPOSITION USING SAME” (SUPADELIXIR INC., priority 2019, published 2022).

Legend:
[1] = test system: IL-6; experiment: ELISA, IL-6 production caused by fine dust; type: cell-based, human; conditions: HaCaT cells, fine dust 10 ug/ml plus peptide 20 uM, 24 hours; fine dust only = 100, no treatment = 0
Method: (§1) 2. Specifically, the cultured HaCaT cells were treated with 10 ug/ml of fine dust and 20 uM of the peptide produced in Example 1 (AhR Pep1 to AhR Pep4) respectively, and incubated for 24 hours. Then, IL-6 and TNF-α contents were measured using a […] enzyme-linked immunosorbent assay (ELISA) kit (R&D Systems Inc, Minneapolis, Minn., USA).

[2] = test system: TNF-α; experiment: ELISA, TNF-α production caused by fine dust; type: cell-based, human; conditions: HaCaT cells, fine dust 10 ug/ml plus peptide 20 uM, 24 hours; fine dust only = 100, no treatment = 0
Method: as §1

| Substance | IL-6 production (%) [1] | TNF-α production (%) [2] |
| --- | --- | --- |
| Asn-Thr-Glu (NTE; Peptide 4) [AhR Pep 4] | 74% | 82% |
| Asn-Thr-Glu-Leu (NTEL; Peptide 3) [AhR Pep 3] | 83% | 89% |
| Asp-Arg-Leu (DRL; Peptide 2) [AhR Pep 2] | 87% | 93% |
| Asp-Arg-Leu-Asn (DRLN; Peptide 1) [AhR Pep 1] | 76% | 79% |
